Results taken from ChEMBL document CHEMBL5226324, “Exploring Translocator Protein (TSPO) Medicinal Chemistry: An Approach for Targeting Radionuclides and Boron Atoms to Mitochondria” (J Med Chem, 2021).

Tests used:
[1] = biological target: T1, Translocator protein (Homo sapiens, UniProt P30536); test: Binding affinity to human TSPO
[2] = Metabolic stability in rat brain assessed as parent compound remaining after 30 mins by radio-HPLC analysis; type: ADME, tissue-based; conditions: read-out: Stability
[3] = Displacement of [3H]flunitrazepam from CBR receptor in rat brain cortex membrane incubated for 20 mins by liquid scintillation spectrometer method; type: cell membranes, Cerebral cortex
[4] = biological target: T1, Translocator protein; test: Binding affinity to TSPO receptor (unknown origin)
[5] = Binding affinity to CBR (unknown origin); design: species or system Homo sapiens
[6] = biological target: T2, Translocator protein (Rattus norvegicus, UniProt P16257); test: Displacement of [3H]PK11195 from TSPO receptor in rat brain cortex membrane incubated for 120 mins by liquid scintillation spectrometer method; type: cell membranes, Cerebral cortex
T2 sequence (P16257 whole entry, looked up): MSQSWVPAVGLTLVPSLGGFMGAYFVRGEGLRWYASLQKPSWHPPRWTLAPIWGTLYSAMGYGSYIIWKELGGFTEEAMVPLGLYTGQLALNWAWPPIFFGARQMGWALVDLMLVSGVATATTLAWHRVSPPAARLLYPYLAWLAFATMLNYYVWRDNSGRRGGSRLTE

[7] = biological target: T2, Translocator protein; test: Displacement of [3H]PK11195 from TSPO receptor in rat brain cortex mitochondrial membrane incubated for 60 mins by liquid scintillation spectrometer method; type: cell membranes
[8] = Lipophilicity, log P of the compound at pH 7.4; type: physicochemical; conditions: buffer
[9] = biological target: T2, Translocator protein; test: Displacement of [3H]PK11195 from TSPO receptor in rat brain cortex mitochondrial membrane by liquid scintillation spectrometer method; type: cell membranes

T1 sequence (P30536 whole entry): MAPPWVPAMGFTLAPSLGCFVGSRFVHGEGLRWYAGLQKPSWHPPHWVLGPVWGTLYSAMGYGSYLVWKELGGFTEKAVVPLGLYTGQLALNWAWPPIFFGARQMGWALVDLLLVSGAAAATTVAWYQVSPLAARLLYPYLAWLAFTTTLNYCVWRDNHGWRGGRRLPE

CCC(C)N(C)C(=O)c1cc2ccccc2c(-c2ccccc2[123I])n1 (stereo not given)
Kd [1]: 10 nM

CCN(CC)C(=O)Cc1c(-c2ccc(OCCF)cc2)nn2c(C)cc(C)nc12 [DPA-714]
remaining at 0.5 h [2]: < 3%

CCCN(CCC)C(=O)Cc1c(-c2ccc(Cl)cc2)[nH]c2ccc(Cl)cc12
IC50 ([3]; read-out: IC50): > 1000 nM

CCCCCCN(CCCCCC)C(=O)/C=C1\c2nc3ccccc3cc2C(=O)N1c1ccc(Cl)cc1
IC50 ([3]; read-out: IC50): > 1000 nM

CCCCCCN(CCCCCC)C(=O)CC1c2nc3ccccc3cc2C(=O)N1c1ccc(Cl)cc1 (stereo not given)
IC50 ([3]; read-out: IC50): > 1000 nM

CN1C(=O)CN=C(c2ccccc2)c2cc(Cl)ccc21 [DIAZEPAM]
IC50 [3]: 5.6 nM

CCN(CC)C(=O)[C@H]1CCCc2c1c1c(OC)cccc1n2CC[18F]
Ki [4]: 2.4 nM

CCCN(CCC)C(=O)Cc1c(-c2ccc(Cl)cc2)nc2ccc(Cl)cn12 [ALPIDEM]
Ki [5]: 1 nM | IC50 ([3]; read-out: IC50): 1 nM | IC50 [6]: 0.5 nM

CCCN(CCC)C(=O)/C=C1\c2ncccc2C(=O)N1c1ccc(Cl)cc1
IC50 ([3]; read-out: IC50): > 1000 nM

CCCCN1Cc2c(nc3ccccc3c2-c2ccccc2)C1=O
IC50 [6]: > 10000 nM

CCCCCCN(CCCCCC)C(=O)/C=C1\c2ncccc2C(=O)N1c1ccc(Cl)cc1
IC50 ([3]; read-out: IC50): > 1000 nM

CCCCCCN(CCCCCC)C(=O)CC1c2ncccc2C(=O)N1c1ccc(Cl)cc1 (stereo not given)
IC50 ([3]; read-out: IC50): > 1000 nM

CCCN(CCC)C(=O)/C=C1\c2nc3ccccc3cc2C(=O)N1c1ccc(Cl)cc1
IC50 ([3]; read-out: IC50): > 1000 nM

CCCN(CCC)C(=O)CC1c2ncccc2C(=O)N1c1ccc(Cl)cc1 (stereo not given)
IC50 ([3]; read-out: IC50): 860 nM

CN1C(=O)CN=C(c2ccc(Cl)cc2)c2cc(Cl)ccc21 [RO-54864]
Kd [4]: 1.1 nM

O=C1c2cccnc2CN1c1ccc(Cl)cc1
IC50 ([3]; read-out: IC50): > 1000 nM

CCN(CC)C(=O)Cc1c(-c2ccc([123I])cc2)nc2ccc(Cl)cn12
Kd [7]: 3.84 nM

CN(Cc1ccccc1)C(=O)c1nc2ccccc2c2c1CCOc1ccccc1-2
IC50 [6]: 10 nM

CCCN(CCC)C(=O)CC1c2nc3ccccc3cc2C(=O)N1c1ccccc1 (stereo not given)
IC50 ([3]; read-out: IC50): > 1000 nM | IC50 [6]: > 1000 nM

CC(=O)N(Cc1ccccc1OCC[18F])c1cnccc1Oc1ccccc1
logD [8]: 2.99 | Ki [9]: 0.07 nM

CCCCN1Cc2c(nc3ccccc3c2-c2ccccc2F)C1=O
IC50 [6]: > 10000 nM
